Tested on: G-401 tumor spheroids, viability % test/control
Experiment: Anticancer human tumor G-401 cell line growth inhibition;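 also: spheroids exposed to compound for 7 days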;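 as to viability, T/C: 100% = DMSO vehicle-treated spheroids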
Settings: spheroids with HUVEC and MSC; for IC50: curve of first compound; for viability, T/C: stronger effect = lower value
Procedure, shortened: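 Complex tumor spheroids combined malignant cells with endothelial cells and mesenchymal stem cells. DNA-damaging drugs and DNA repair inhibitors were tested alone and in combination, at half-log dilutions down from clinical Cmax (top 10 microM if Cmax unknown), 0.25% DMSO final.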

[1] = second compound 30 pM, first compound 0.00949 µM
[2] = second compound 30 pM, first compound 0.03 µM
[3] = second compound 30 pM, first compound 0.0949 µM
[4] = second compound 30 pM, first compound 0.3 µM
[5] = second compound 30 pM, first compound 0.949 µM
[6] = second compound 30 pM, first compound 3 µM
[7] = second compound 94.9 pM, first compound 0.00949 µM
[8] = second compound 94.9 pM, first compound 0.03 µM
[9] = second compound 94.9 pM, first compound 0.0949 µM
[10] = second compound 94.9 pM, first compound 0.3 µM
[11] = second compound 94.9 pM, first compound 0.949 µM
[12] = second compound 94.9 pM, first compound 3 µM
[13] = second compound 0.0003 µM, first compound 0.00949 µM
[14] = second compound 0.0003 µM, first compound 0.03 µM
[15] = second compound 0.0003 µM, first compound 0.0949 µM
[16] = second compound 0.0003 µM, first compound 0.3 µM
[17] = second compound 0.0003 µM, first compound 0.949 µM
[18] = second compound 0.0003 µM, first compound 3 µM
[19] = second compound 0.000949 µM, first compound 0.00949 µM
[20] = second compound 0.000949 µM, first compound 0.03 µM
[21] = second compound 0.000949 µM, first compound 0.0949 µM
[22] = second compound 0.000949 µM, first compound 0.3 µM
[23] = second compound 0.000949 µM, first compound 0.949 µM
[24] = second compound 0.000949 µM, first compound 3 µM
[25] = second compound 0.003 µM, first compound 0.00949 µM
[26] = second compound 0.003 µM, first compound 0.03 µM
[27] = second compound 0.003 µM, first compound 0.0949 µM
[28] = second compound 0.003 µM, first compound 0.3 µM
[29] = second compound 0.003 µM, first compound 0.949 µM
[30] = second compound 0.003 µM, first compound 3 µM

SMILES	IC50 (second compound 30 pM) [nM]	IC50 (second compound 94.9 pM) [nM]	IC50 (second compound 0.0003 µM) [nM]	IC50 (second compound 0.000949 µM) [nM]	IC50 (second compound 0.003 µM) [nM]	viability, T/C [1] [%]	viability, T/C [2] [%]	viability, T/C [3] [%]	viability, T/C [4] [%]	viability, T/C [5] [%]	viability, T/C [6] [%]	viability, T/C [7] [%]	viability, T/C [8] [%]	viability, T/C [9] [%]	viability, T/C [10] [%]	viability, T/C [11] [%]	viability, T/C [12] [%]	viability, T/C [13] [%]	viability, T/C [14] [%]	viability, T/C [15] [%]	further results
CNCc1ccc(-c2cc(-c3nc(-c4ccc(S(=O)(=O)C(C)C)cc4)cnc3N)on2)cc1 + COc1cc2c(cc1O)CCNC21CSC2c3c(OC(C)=O)c(C)c4c(c3C(COC1=O)N1C(O)C3Cc5cc(C)c(OC)c(O)c5C(C21)N3C)OCO4	1420	529	10.3	< 9.49	< 9.49	100	95.5	103	88.7	58.4	35	94.4	94.8	89.9	60.5	39.5	25.8	48	51.4	38.2	viability, T/C [16]: 25.9%; viability, T/C [17]: 24.1%; viability, T/C [18]: 18.6%; viability, T/C [19]: 9.02%; viability, T/C [20]: 10.5%; viability, T/C [21]: 12.2%; viability, T/C [22]: 18.3%; viability, T/C [23]: 19.3%; viability, T/C [24]: 9.87%; viability, T/C [25]: 0.14%; viability, T/C [26]: 0.14%; viability, T/C [27]: 0.22%; viability, T/C [28]: 0.29%; viability, T/C [29]: 0.89%; viability, T/C [30]: 0.21%
Cn1ncnc1[C@H]1c2n[nH]c(=O)c3cc(F)cc(c23)N[C@@H]1c1ccc(F)cc1 + COc1cc2c(cc1O)CCNC21CSC2c3c(OC(C)=O)c(C)c4c(c3C(COC1=O)N1C(O)C3Cc5cc(C)c(OC)c(O)c5C(C21)N3C)OCO4	72.5	< 9.49	< 9.49	< 9.49	< 9.49	70.6	62	46	30.6	19.6	10.8	48.4	47.3	34.1	26.2	17.9	9.94	25.6	26.4	21.5	viability, T/C [16]: 19.1%; viability, T/C [17]: 11.2%; viability, T/C [18]: 7.83%; viability, T/C [19]: 6.63%; viability, T/C [20]: 5.61%; viability, T/C [21]: 5.35%; viability, T/C [22]: 5.74%; viability, T/C [23]: 2.94%; viability, T/C [24]: 0.23%; viability, T/C [25]: 0.15%; viability, T/C [26]: 0.13%; viability, T/C [27]: 0.13%; viability, T/C [28]: 0.15%; viability, T/C [29]: 0.14%; viability, T/C [30]: 0.21%

Source: PubChem BioAssay AID1845203 (Molecular Pharmacology Branch, DTP, NCI, 2023)
